The source of these data is patent US10562890B2, “Cancer therapeutics” (UNIVERSITY OF VIRGINIA PATENT FOUNDATION, priority 2014, dated 2020).

Experiment [1] addresses binding of CBFβ to RUNX1 in SEM cells (Homo sapiens (Human), UniProt Q13951). Kind of experiment: Co-immunoprecipitation of CBFβ with RUNX1 in SEM cells. The class given is cell-based. The conditions noted are these: 10 μM, 6 hours. On the procedure: To test whether the wild-type CBFβ Inhibitors can disrupt the binding of CBFβ to RUNX1 in cells, co-immunoprecipitation experiments were performed in the SEM cell line. Co-immunoprecipitation assays of lysates from […] SEM cells were treated with Al-4-88^1, Al-10-47, Al-10-104, Al-12-126 and Al-14-91 at 10 μM for 6 hours. RUNX1-bound CBFβ protein levels and immunoprecipitated RUNX1 are shown on the top panel of FIG. 2A. Quantification of RUNX1 bound CBFβ is shown on the bottom graph.

Experiment [2] concerns T-ALL cell lines Jurkat, HBP-ALL, Loucy, and KOPTK1. The experiment can be described thus: Proliferation of T-ALL cell lines. The class given is cell-based, human.
Experiment [3] concerns the target CBFβ binding to the RUNX1 Runt domain (Homo sapiens (Human), UniProt Q13951). Kind of experiment: FRET assay, inhibition of CBFβ binding to the RUNX1 Runt domain. The conditions noted are these: inhibition of wild-type CBFβ binding to the RUNX1 Runt domain; NA = not active. The text has this:
Fluorescence Resonance Energy Transfer (FRET) Assay:
As described in U.S. Pat. No. 8,748,618 and published PCT application WO2010/132684, a FRET assay can be used to effectively monitor the inhibition of CBF binding to the Runt domain of RUNX proteins (as well as for CBFβ-SMMHC binding to the Runt domain of RUNX proteins). For the assay, the green fluorescent protein derivative Cerulean is fused to the N-terminus of the Runt domain and the green fluorescent protein derivative Venus to the N-terminus of CBFβ (Gorczynski, M. J., J. Grembecka, et al. (2007), “Allosteric inhibition of the protein-protein interaction between the leukemia-associated proteins Runx1 and CBFbeta.” Chem Biol 14(10): 1186-97), or to CBFβ-SMMHC (Illendula, A. et al. Chemical biology. A small-molecule inhibitor of the aberrant transcription factor CBFbeta-SMMHC delays leukemia in mice. Science 347, 779-784, doi:10.1126/science.aaa0314 (2015)). The ratio of the emission intensities at 525 nm and 474 nm, measured after excitation at 433 nm, was used as the readout in this assay. The dynamic range for the FRET assay was determined by adding a 30-fold excess of untagged CBFβ (or CBFβ-SMMHC) to the assay and the associated change in the FRET ratio was defined as 100% inhibition.

The structures appear in SMILES notation.

Chain of binding of CBFβ to RUNX1 in SEM cells (Q13951 whole entry): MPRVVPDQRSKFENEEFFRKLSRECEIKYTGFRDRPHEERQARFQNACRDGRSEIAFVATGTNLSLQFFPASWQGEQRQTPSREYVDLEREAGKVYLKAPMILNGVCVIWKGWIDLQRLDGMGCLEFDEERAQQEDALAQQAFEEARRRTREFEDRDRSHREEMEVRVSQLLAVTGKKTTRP
Chain of CBFβ binding to the RUNX1 Runt domain (Q13951 1-141): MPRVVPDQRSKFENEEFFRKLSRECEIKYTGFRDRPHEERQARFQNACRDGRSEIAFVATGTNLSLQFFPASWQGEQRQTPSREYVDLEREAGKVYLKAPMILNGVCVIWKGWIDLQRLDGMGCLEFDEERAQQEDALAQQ

For `COc1cccnc1-c1nc2cc(OC(F)(F)F)ccc2[nH]1` [Al-10-104], in experiment [1], the “RUNX1-bound CBFβ (co-immunoprecipitation)” value was “reduction in binding”. For the same compound, the proliferation entry in experiment [2] is listed as “inhibited proliferation”. The IC50 (commonly the concentration at which inhibition is half-maximal) in experiment [3] worked out at 2650 ± 180 nM.
